# Data published in US20240382629A1, “HETEROBIVALENT AND HOMOBIVALENT AGENTS TARGETING FIBROBLAST ACTIVATION PROTEIN ALPHA AND/OR PROSTATE-SPECIFIC MEMBRANE ANTIGEN” (The Johns Hopkins University, priority 2021, published 2024).
# Where “and” joins values, the source holds several entries; their conditions need not be identical. Equal entries are not always repeated.
# Test: Biodistribution of [^18F]JHU122047 with UAMC-01110 blocker
# Type: in vivo, mouse
# Details: NOD/SCID Model, 60 min; for % ID/g Bladder / % ID/g Blood / % ID/g Brain / % ID/g Fat / % ID/g Femur / % ID/g Heart / % ID/g Kidney / % ID/g Large intestine / % ID/g Liver / % ID/g Lung / % ID/g Muscle / % ID/g Pancreas / % ID/g Salivery gland / % ID/g Small intestine / % ID/g Spleen / % ID/g Stomach / % ID/g Tumor: individual mouse
smiles,measurement,setting,value
N#C[C@@H]1CCCN1C(=O)CNC(=O)c1ccnc2ccc(OCCCNC(=O)[C@H](CCNC(=O)c3ccc([18F])nc3)NC(=O)CN3CCN(CC(=O)[O-])CCN(CC(=O)[O-])CCN(CC(=O)[O-])CC3)cc12.[In+3] [[^18F]Sri-08-51],% ID/g Bladder,+ Blocker (UAMC-01110),13.35 % ID/g and 61.94 % ID/g
same,% ID/g Blood,+ Blocker (UAMC-01110),0.22 % ID/g and 0.40 % ID/g
same,% ID/g Brain,+ Blocker (UAMC-01110),0.02 % ID/g and 1.02 % ID/g
same,% ID/g Fat,+ Blocker (UAMC-01110),0.06 % ID/g
same,% ID/g Femur,+ Blocker (UAMC-01110),0.88 % ID/g and 0.38 % ID/g
same,% ID/g Heart,+ Blocker (UAMC-01110),0.11 % ID/g and 0.25 % ID/g
same,% ID/g Kidney,+ Blocker (UAMC-01110),1.42 % ID/g and 1.40 % ID/g
same,% ID/g Large intestine,+ Blocker (UAMC-01110),0.19 % ID/g and 0.35 % ID/g
same,% ID/g Liver,+ Blocker (UAMC-01110),4.02 % ID/g and 8.14 % ID/g
same,% ID/g Lung,+ Blocker (UAMC-01110),0.32 % ID/g and 0.61 % ID/g
same,% ID/g Muscle,+ Blocker (UAMC-01110),0.07 % ID/g and 0.49 % ID/g
same,% ID/g Pancreas,+ Blocker (UAMC-01110),0.08 % ID/g and 0.17 % ID/g
same,% ID/g Salivery gland,+ Blocker (UAMC-01110),0.45 % ID/g and 0.26 % ID/g
same,% ID/g Small intestine,+ Blocker (UAMC-01110),0.94 % ID/g and 2.12 % ID/g
same,% ID/g Spleen,+ Blocker (UAMC-01110),0.14 % ID/g and 0.32 % ID/g
same,% ID/g Stomach,+ Blocker (UAMC-01110),0.25 % ID/g and 0.45 % ID/g
same,% ID/g Tumor,+ Blocker (UAMC-01110),1.34 % ID/g and 0.91 % ID/g
same,% ID/g Bladder Mean,+ Blocker (UAMC-01110),37.64 % ID/g
same,% ID/g Blood Mean,+ Blocker (UAMC-01110),0.31 % ID/g
same,% ID/g Brain Mean,+ Blocker (UAMC-01110),0.52 % ID/g
same,% ID/g Fat Mean,+ Blocker (UAMC-01110),0.06 % ID/g
same,% ID/g Femur Mean,+ Blocker (UAMC-01110),0.88 % ID/g
same,% ID/g Heart Mean,+ Blocker (UAMC-01110),0.18 % ID/g
same,% ID/g Kidney Mean,+ Blocker (UAMC-01110),1.41 % ID/g
same,% ID/g Large intestine Mean,+ Blocker (UAMC-01110),0.27 % ID/g
same,% ID/g Liver Mean,+ Blocker (UAMC-01110),6.08 % ID/g
same,% ID/g Lung Mean,+ Blocker (UAMC-01110),0.47 % ID/g
same,% ID/g Muscle Mean,+ Blocker (UAMC-01110),0.28 % ID/g
same,% ID/g Pancreas Mean,+ Blocker (UAMC-01110),0.13 % ID/g
same,% ID/g Salivary gland Mean,+ Blocker (UAMC-01110),0.35 % ID/g
same,% ID/g Small intestine Mean,+ Blocker (UAMC-01110),1.53 % ID/g
same,% ID/g Spleen Mean,+ Blocker (UAMC-01110),0.23 % ID/g
same,% ID/g Stomach Mean,+ Blocker (UAMC-01110),0.35 % ID/g
same,% ID/g Tumor Mean,+ Blocker (UAMC-01110),1.13 % ID/g
same,% ID/g Bladder,no blocker,44.77 % ID/g and 23.08 % ID/g
same,% ID/g Blood,no blocker,4.18 % ID/g and 5.83 % ID/g
same,% ID/g Brain,no blocker,0.26 % ID/g and 0.25 % ID/g
same,% ID/g Fat,no blocker,2.81 % ID/g and 0.45 % ID/g
same,% ID/g Femur,no blocker,4.83 % ID/g and 5.16 % ID/g
same,% ID/g Heart,no blocker,1.74 % ID/g and 2.39 % ID/g
same,% ID/g Kidney,no blocker,2.10 % ID/g and 2.19 % ID/g
same,% ID/g Large intestine,no blocker,1.91 % ID/g and 1.87 % ID/g
same,% ID/g Liver,no blocker,3.23 % ID/g and 4.21 % ID/g
same,% ID/g Lung,no blocker,2.77 % ID/g and 2.76 % ID/g
same,% ID/g Muscle,no blocker,2.84 % ID/g and 2.83 % ID/g
same,% ID/g Pancreas,no blocker,3.99 % ID/g and 4.82 % ID/g
same,% ID/g Salivery gland,no blocker,12.48 % ID/g and 14.32 % ID/g
same,% ID/g Small intestine,no blocker,2.09 % ID/g
same,% ID/g Spleen,no blocker,1.27 % ID/g and 1.71 % ID/g
same,% ID/g Stomach,no blocker,1.65 % ID/g and 1.75 % ID/g
same,% ID/g Tumor,no blocker,16.64 % ID/g and 15.98 % ID/g
same,% ID/g Bladder Mean,no blocker,33.92 % ID/g
same,% ID/g Blood Mean,no blocker,5.01 % ID/g
same,% ID/g Brain Mean,no blocker,0.25 % ID/g
same,% ID/g Fat Mean,no blocker,1.63 % ID/g
same,% ID/g Femur Mean,no blocker,5.00 % ID/g
same,% ID/g Heart Mean,no blocker,2.07 % ID/g
same,% ID/g Kidney Mean,no blocker,2.15 % ID/g
same,% ID/g Large intestine Mean,no blocker,1.89 % ID/g
same,% ID/g Liver Mean,no blocker,3.72 % ID/g
same,% ID/g Lung Mean,no blocker,2.77 % ID/g
same,% ID/g Muscle Mean,no blocker,2.84 % ID/g
same,% ID/g Pancreas Mean,no blocker,4.40 % ID/g
same,% ID/g Salivary gland Mean,no blocker,13.40 % ID/g
same,% ID/g Small intestine Mean,no blocker,2.09 % ID/g
same,% ID/g Spleen Mean,no blocker,1.49 % ID/g
same,% ID/g Stomach Mean,no blocker,1.70 % ID/g
same,% ID/g Tumor Mean,no blocker,16.31 % ID/g
